Legend:
rhPRDX1 (PRDX1) [1] = molecular target: T1, rhPRDX1 (PRDX1) (Homo sapiens, UniProt Q06830); assay: intrinsic fluorescence titration, Hill plot; type: binding
T1 construct: pET28a His-tagged, expressed in E. coli BL21, His-purified; homodimer in docking model; endogenous protein of U2932 lysate in the Biotin-ART pull-down
T1 sequence (Q06830 2-199): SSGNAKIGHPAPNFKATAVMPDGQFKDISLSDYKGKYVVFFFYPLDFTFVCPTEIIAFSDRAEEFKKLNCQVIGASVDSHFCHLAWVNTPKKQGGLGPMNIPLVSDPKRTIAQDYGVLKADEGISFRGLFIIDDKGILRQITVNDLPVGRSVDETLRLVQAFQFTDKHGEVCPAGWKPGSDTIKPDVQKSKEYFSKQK

rhPRDX2 (PRDX2) [2] = molecular target: T2, rhPRDX2 (PRDX2) (Homo sapiens, UniProt P32119); assay: intrinsic fluorescence titration, Hill plot; type: binding
T2 construct: pET28a His-tagged, expressed in E. coli Rosetta, His-purified; decamer in docking model; endogenous protein of U2932 lysate in the Biotin-ART pull-down
T2 sequence (P32119 2-198): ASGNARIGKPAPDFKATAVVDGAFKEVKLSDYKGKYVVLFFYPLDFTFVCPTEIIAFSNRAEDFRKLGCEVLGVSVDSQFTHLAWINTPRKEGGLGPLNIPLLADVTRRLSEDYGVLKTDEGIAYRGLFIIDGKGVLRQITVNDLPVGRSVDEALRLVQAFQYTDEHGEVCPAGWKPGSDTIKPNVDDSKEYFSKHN

rhPRDX2 (PRDX2) [3] = molecular target: T2, rhPRDX2 (PRDX2); assay: CD thermal denaturation; type: binding; conditions: 10 μM protein, 1 mM ART, 20 mM Tris-HCl
rhPRDX1 (PRDX1) [4] = molecular target: T1, rhPRDX1 (PRDX1); assay: H2O2 reduction assay, residual H2O2 kit; type: biochemical; conditions: 20 μM protein, 30 min preincubation, 100 μM H2O2, RT

Kd (rhPRDX1 (PRDX1) [1]): 6.1 µM | Kd (rhPRDX2 (PRDX2) [2]): 5.24 µM | Tm (without to with ART) (rhPRDX2 (PRDX2) [3]): 57 to 61 °C
Structure (SMILES): C[C@H]1[C@H](OC(=O)CCC(=O)O)O[C@@H]2O[C@@]3(C)CC[C@H]4[C@H](C)CC[C@@H]1[C@@]24OO3 [Artesunate]
H2O2 reduction assay, residual H2O2 kit (rhPRDX1 (PRDX1) [4]): ART suppressed the peroxidase activity of rhPRDX1 and rhPRDX2 in a dose-dependent manner

— PMC12254379, “Artesunate induces ferroptosis in diffuse large B-cell lymphoma cells by targeting PRDX1 and PRDX2” (Cell Death & Disease, 2025)
